Read-outs that look alike come from different tables or passages of the source.
Key:
[1] = Stern-Volmer triplet quenching with naphthalene; format: physicochemical; conditions: CCl4
From the text: All the peresters give linear Stern-Volmer plots when naphthalene is used as triplet quencher.

[2] = End group analysis of polystyrene by IR
Protocol: The polystyrene obtained from each of the above polymerizations is purified by repeated (four times) precipitation from benzene solution with methanol. Before each precipitation, the benzene solution is centrifuged to remove any insoluble material. The finely powdered polymer is filtered and dried under vacuum for two days. Known amounts of polymer are dissolved in benzene and the IR is taken (2000-1500 cm^-1) against benzene in 0.1-mm NaCl cells. The peaks at 1730 and 1670 cm^-1 for the carbonyl groups, caused by ester and benzophenones, respectively, are measured. […] The extinction coefficient of the carbonyl group at 1730 cm^-1 is compared with that of authenticated methyl benzoylbenzoate, which is used as a model to measure the concentration of the ester end groups in the polymer. From the concentration of the ester and the extinction resulting from the carbonyl group in the benzophenone, the absorption caused by the benzophenone that is present as the ester can be calculated. The value is subtracted from the absorption obtained at 1670 cm^- 1 for the polymer. From the resulting absorption, the concentration of benzophenone alone is estimated from the known extinction of benzophenone at that wavelength.

[3] = Exp. 1: benzene, [I] 10 × 10^-3 M, styrene 2 M
[4] = Exp. 2: benzene, [I] 10 × 10^-3 M, styrene 3.5 M
[5] = Exp. 3: benzene, [I] 10 × 10^-3 M, styrene 5.0 M
[6] = Exp. 4: benzene, [I] 10 × 10^-3 M, styrene 7.0 M
[7] = Exp. 5: chloroform, [I] 5.0 × 10^-3 M, styrene 5.51 M
[8] = Exp. 6: chloroform, [I] 5.0 × 10^-3 M, styrene 6.92 M

- quenching constant kq τ [1]: 7.5
Structure (SMILES): CC(C)(C)OOC(=O)c1ccc(C(=O)c2ccccc2)cc1 [Ia, t-Butyl-4-Benzoylperbenzoate]
- total number of benzophenones as end groups per chain, in words [2]: one benzophenone end group
- end groups per chain, Benzophenone [2, 3]: 0.18
- end groups per chain, Benzophenone as ester [2, 3]: 0.52
- end groups per chain, Total [2, 3]: 0.70
- end groups per chain, Benzophenone [2, 4]: 0.13
- end groups per chain, Benzophenone as ester [2, 4]: 0.68
- end groups per chain, Total [2, 4]: 0.81
- end groups per chain, Benzophenone [2, 5]: 0.33
- end groups per chain, Benzophenone as ester [2, 5]: 0.73
- end groups per chain, Total [2, 5]: 1.06
- end groups per chain, Benzophenone [2, 6]: 0.18
- end groups per chain, Benzophenone as ester [2, 6]: 0.81
- end groups per chain, Total [2, 6]: 0.99
- end groups per chain, Benzophenone [2, 7]: 0.29
- end groups per chain, Benzophenone as ester [2, 7]: 0.62
- end groups per chain, Total [2, 7]: 0.91
- end groups per chain, Benzophenone [2, 8]: 0.34
- end groups per chain, Benzophenone as ester [2, 8]: 0.71
- end groups per chain, Total [2, 8]: 1.05
- total number of benzophenones as end groups per chain, in words ([2]; listed as Perester): almost unity

Reference: patent publication US4416826A, “Peresters and use thereof” (priority 1980, dated 1983)
